The subject of assay [1] is p21, BAX and FAS. The assay is described as follows: p53 target gene expression (p21, BAX, FAS) by qRT-PCR. In kind it is cell-based. As to conditions: HeLa cells, 8h. The source says: (§1) RNA from C33a and HeLa was isolated by Trizol and reverse transcribed using the first strand synthesis kit from NEB. Primers for p53, GAPDH and PUMA were used for quantitative real-time PCR (qRT-PCR). Primer sequences include: PUMA (forward primer: CTCAACGCACAGTACGAG and reverse primer: […]), FAS (forward primer: TCTGCCATAAGCCCTGT and reverse primer: GTCTGTGTACTCCTTCCCT), p21 (forward primer: […] and reverse primer: […]), and BAX (forward primer: […] and reverse primer: […]). ΔΔCt values were determined for PUMA using GAPDH to normalize data. Bio-rad SYBR green was used for the amplification and detection of the PCR products on an iCycler (Bio-rad).
A general note: Real-time PCR tracks product formation cycle by cycle.

Assay [2] deals with PUMA promoter. The assay is described as follows: ChIP-qPCR of p53 binding to the PUMA promoter. Type of assay: cell-based. As to conditions: 8 hrs. Here is the method:
Cells treated with the indicated compounds for 8 hrs, harvested and ChIP was carried using a Chromatin Immunoprecipitation Assay Kit (EMD Millipore). p53-DNA complexes were immunoprecipitated using a mouse monoclonal DO-1 antibody (Santa Cruz) and incubated overnight at 4°C. qPCR amplifications was performed using the primer sequences Puma forward 5’- […], reverse 5’- […].

The target of assay [3] is T1, p73 (Homo sapiens, UniProt O15350).
T1 construct: endogenous in cells; host or cells: HCT116 (p53-null mutHCT116 and wtHCT116)
T1 sequence (O15350 1-636): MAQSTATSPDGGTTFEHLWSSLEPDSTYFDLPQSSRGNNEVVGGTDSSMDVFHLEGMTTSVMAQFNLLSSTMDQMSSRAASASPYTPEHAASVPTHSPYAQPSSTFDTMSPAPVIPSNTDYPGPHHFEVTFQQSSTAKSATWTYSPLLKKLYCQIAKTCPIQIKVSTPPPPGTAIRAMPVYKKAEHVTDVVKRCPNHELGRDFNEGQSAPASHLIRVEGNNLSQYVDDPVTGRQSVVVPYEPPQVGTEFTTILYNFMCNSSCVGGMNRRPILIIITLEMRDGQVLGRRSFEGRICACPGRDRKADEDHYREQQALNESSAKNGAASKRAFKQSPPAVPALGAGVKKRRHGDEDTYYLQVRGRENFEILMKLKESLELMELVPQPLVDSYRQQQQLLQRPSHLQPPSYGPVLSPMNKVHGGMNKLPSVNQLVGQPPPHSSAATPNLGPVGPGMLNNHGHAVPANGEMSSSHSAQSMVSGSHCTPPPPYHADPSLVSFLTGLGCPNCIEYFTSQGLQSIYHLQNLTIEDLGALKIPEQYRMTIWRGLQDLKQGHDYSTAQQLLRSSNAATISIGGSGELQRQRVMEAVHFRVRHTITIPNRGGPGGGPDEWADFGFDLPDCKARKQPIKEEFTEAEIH
Nature of the assay: p73 nuclear accumulation by Western analysis. Type of assay: cell-based. As to conditions: mutHCT116 cells, 6h.

Assay [4] has as its system proteasome trypsin-like activity. Nature of the assay: Proteasome-Glo trypsin-like activity. Type of assay: cell-based. As to conditions: C33a cells, 2 hrs, 10 μM or 30 μM.
Assay [5] addresses T2, p53 (Homo sapiens, UniProt P04637, R273C).
T2 construct: endogenous in cells; host or cells: C33a
The assay is described as follows: p53 nuclear localization by immunofluorescence. Type of assay: cell-based. As to conditions: C33a cells, 30 μM, 8 hrs. Here is the method: C33a cells were plated into chamber slides and treated with 30 μM of compounds 3 or, 4 for 4, or 8 hours. As a control, 30 μM cisplatin was used. The cells were fixed with 2.5% formaldehyde for 30 minutes, followed by permeabilization with 0.01% Triton X100 for 30 minutes. Cells were blocked with 5% goat serum for 30 minutes and stained overnight with anti-p53 (Santa Cruz, antibody FL-303) or anti-phospho-H2A.X (cell signaling) in 1% FCS in PBS at 4°. The following day, the cells were washed with PBS and incubated for 45 minutes with anti-rabbit-FITC and DAPI in 1% FCS in PBS. The cells were washed and mounted with ProLong Gold.

Assay [6] deals with E6 (Human papillomavirus type 16, UniProt P03126). As to conditions: SPR. Here is the method:
p53 or E6 (R&D systems) were suspended in 10 mM sodium acetate pH 5.0 and amine linked to a Biacore CM5 chip (GE systems). Free reactive amines were then blocked with ethanolamine. Compound 4 was diluted in HBS P buffer (GE systems) at concentrations 1–30 μM and run over the chip. The association time was monitored for 300s and disassociation time for 1000 sec. After each run, the chip was regenerated using 10 mM glycine pH 3.0. The sensograms were fit to a one-ligand model to determine the Ka and Kd.
Background: In SPR one partner is held on a chip, and binding of the other changes the refractive index at the surface.

Assay [7] deals with MCF7 cells. Nature of the assay: Cell viability, MCF7. In kind it is cell-based. The conditions noted are these: MCF7, wild type p53.
The subject of assay [8] is PUMA. Nature of the assay: PUMA transcription by qRT-PCR. Type of assay: cell-based. As to conditions: 30 μM, 8h.
Description: as §1

Assay [9] deals with p53-Luc. Nature of the assay: In vitro E6 degradation assay (recombinant E6 with p53-Luc lysates). In kind it is biochemical. As to conditions: 50 ng recombinant E6, 10 μM compound, C33a lysates, 6 hours. The method, then: For the in vitro assay, E6 was cloned into the pMAL vector in frame with the maltose binding protein. The E6 was expressed in bacteria and purified on amylose column. C33a cells were transfected with p53-Luc and incubated overnight. 50 ng recombinant E6 was incubated with 10 μM compound and C33a lysates for 6 hours at 30 degrees. We measured luciferase activity after 30 minutes. For the trypsin and chymotrypsin assay, C33a cells were incubated for 2 hours with the indicated compounds at 10 μM and assessed for chymotrypsin and trypsin activity using Proteasome-Glo assay (Promega). For the in vivo degradation assay, C33a cells expressing Ad-TE6 and Ad-p53 or expressing Ad-TE7 and Ad-Rb-Ren were treated for 8 hours with compounds. After incubation, cells were lysed and luciferase activity measured and p53 levels measured by Western blot.

Chain of E6 (P03126 whole entry): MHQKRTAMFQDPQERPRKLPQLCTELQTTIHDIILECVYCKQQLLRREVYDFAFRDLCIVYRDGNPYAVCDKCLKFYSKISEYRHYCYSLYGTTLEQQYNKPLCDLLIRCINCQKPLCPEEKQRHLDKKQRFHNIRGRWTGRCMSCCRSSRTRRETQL

As usually defined, the Kd is a measure of binding affinity in units of concentration. Turning to `COc1ccc(/C=C/c2ccc3cccc(O)c3n2)cc1OC` [compound 4], the “expression of p21, BAX and FAS” value in assay [1] was “induced expression”. Moreover, the entries for the “p53 binding to the PUMA promoter compared to controls” value in [2] (C33a cells) and in assay [2] (HeLa cells) were 38.9±2.4 fold and 31.3±8.7 fold, respectively. Moreover, in [3], the p73 nuclear accumulation entry is listed as “did not increase p73 nuclear accumulation”. The trypsin-like proteasome activity result in assay [4] is “did not significantly reduce”. Moreover, the “p53 nuclear accumulation, % of cell nuclei” value in assay [5] is on record as 79.5±12.7 % of cell nuclei. Also, the “fold lesser affinity for E6 than for p53” value in [6] (E6 versus p53) is 16 fold. In addition, the Kd in assay [6] (read-out: KD for E6, recombinant E6) worked out at 3.2 ± 1 µM. The “cell viability (Fig 5D)” value in assay [7] is given as “decreased viability”. In addition, the PUMA transcription upregulation turned out to be 2.76±0.29 fold in assay [8] (C33a cells) and 2.04±0.85 fold in assay [8] (HeLa cells). Besides, in assay [9], the “restoration of p53 levels in vitro” value is recorded as “restored p53 levels in vitro to similar levels as the proteasome inhibitor MG132”.

Values taken from publication PMC4849654, “A High-Throughput Cell-Based Screen Identified a 2-[(E)-2-Phenylvinyl]-8-Quinolinol Core Structure That Activates p53” (PLoS ONE, 2016).
